These results are taken from ChEMBL document CHEMBL1201862, “PubChem BioAssay data set” (2004).

Test [1] in a line: Luminescence Cell-Based Dose Retest to Confirm Inhibitors of Cancer Stem Cells. [Related pubchem assays (depositor defined):AID2717, AID2721]. In kind it is functional. The note with it: Homo sapiens.
The next test addresses T1, Protein RecA (Mycobacterium tuberculosis, UniProt P9WHJ3).
T1 sequence (P9WHJ3 whole entry): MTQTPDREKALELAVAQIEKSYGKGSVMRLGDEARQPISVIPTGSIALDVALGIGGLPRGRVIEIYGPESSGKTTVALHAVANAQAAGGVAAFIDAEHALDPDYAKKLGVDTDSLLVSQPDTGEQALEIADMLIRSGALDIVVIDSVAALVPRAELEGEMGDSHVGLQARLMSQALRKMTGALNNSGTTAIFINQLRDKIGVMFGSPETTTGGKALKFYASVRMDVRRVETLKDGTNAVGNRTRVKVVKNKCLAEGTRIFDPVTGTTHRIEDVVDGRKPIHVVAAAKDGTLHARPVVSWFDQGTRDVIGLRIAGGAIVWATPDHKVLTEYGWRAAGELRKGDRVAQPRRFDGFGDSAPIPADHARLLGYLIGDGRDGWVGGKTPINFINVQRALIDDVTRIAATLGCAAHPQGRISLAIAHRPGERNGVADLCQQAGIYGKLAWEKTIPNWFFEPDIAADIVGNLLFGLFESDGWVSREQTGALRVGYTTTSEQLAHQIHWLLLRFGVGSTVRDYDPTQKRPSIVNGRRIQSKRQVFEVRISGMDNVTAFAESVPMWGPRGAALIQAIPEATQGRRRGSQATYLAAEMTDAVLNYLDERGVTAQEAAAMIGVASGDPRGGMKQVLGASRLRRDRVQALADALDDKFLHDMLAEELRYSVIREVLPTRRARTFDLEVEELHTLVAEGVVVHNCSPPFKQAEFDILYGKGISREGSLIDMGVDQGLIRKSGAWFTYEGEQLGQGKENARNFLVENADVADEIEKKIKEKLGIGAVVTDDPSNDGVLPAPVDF
Kind of test: Fluorescence Cell-Free Homogeneous Dose Retest to Identify Inhibitors of RecA-Intein Splicing Activity. [Related pubchem assays (depositor defined):AID2097, AID2223, AID489010, AID492950]. In kind it is functional.

Test [2] is described as follows: HIV-1 AD8 envelope cell-cell fusion blockers – cherry-pick, dose response (AID 652062).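 Note: luciferase signal from cell-cell fusion driven by HIV-1 clade B AD8 Env; potency is for inhibitors of fusion seen as a drop in luminescence.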 In kind it is functional, cell-based.
Test [3] in a line: viability loss in CEM21 cells – cell-based, CellTiter-Glo luminescence, cherry-picked, cytotoxicity control for viral fusion inhibitor project, dose response (AID 652042).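 Note: potency for signal decrease meaning cytotoxicity.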 The test is classed as functional.
Test [4] in a line: blockers of HIV-1 envelope-mediated cell-cell fusion – cherry-pick, dose response (AID 652057). The test is classed as functional, cell-based.
Test [5] concerns the target T2, Replicative DNA helicase DnaB (Mycobacterium tuberculosis, UniProt P9WMR3).
T2 sequence (P9WMR3 whole entry): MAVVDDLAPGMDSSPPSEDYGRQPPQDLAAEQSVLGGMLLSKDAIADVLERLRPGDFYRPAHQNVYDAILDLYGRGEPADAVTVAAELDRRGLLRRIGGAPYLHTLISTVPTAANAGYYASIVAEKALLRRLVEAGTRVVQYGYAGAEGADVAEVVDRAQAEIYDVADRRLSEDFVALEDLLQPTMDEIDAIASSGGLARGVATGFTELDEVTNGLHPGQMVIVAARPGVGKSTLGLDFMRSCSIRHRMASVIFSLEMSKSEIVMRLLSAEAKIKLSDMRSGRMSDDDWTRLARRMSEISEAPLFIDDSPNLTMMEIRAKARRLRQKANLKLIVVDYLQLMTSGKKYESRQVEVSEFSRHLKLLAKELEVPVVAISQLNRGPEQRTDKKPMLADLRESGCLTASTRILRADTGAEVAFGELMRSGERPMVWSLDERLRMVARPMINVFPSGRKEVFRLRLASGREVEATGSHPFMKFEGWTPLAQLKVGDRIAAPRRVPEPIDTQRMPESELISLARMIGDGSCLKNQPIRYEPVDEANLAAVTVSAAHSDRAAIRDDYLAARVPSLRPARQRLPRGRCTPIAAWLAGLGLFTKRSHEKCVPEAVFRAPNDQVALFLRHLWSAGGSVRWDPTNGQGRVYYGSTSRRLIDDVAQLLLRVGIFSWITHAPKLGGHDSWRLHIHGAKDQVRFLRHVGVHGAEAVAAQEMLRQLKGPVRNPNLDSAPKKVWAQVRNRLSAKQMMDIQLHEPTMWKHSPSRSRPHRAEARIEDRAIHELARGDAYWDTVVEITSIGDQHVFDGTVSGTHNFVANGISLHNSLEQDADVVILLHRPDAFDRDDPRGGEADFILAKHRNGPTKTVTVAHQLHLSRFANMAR
Kind of test: DnaB intein splicing inhibitors, dose response, biochemical, cell-free fluorescence (AID 449749). The test is classed as functional.

Test [6] in a line: off-target signal loss in HeLa-CEM21 co-culture – HeLa F-luc CTL cells, cherry-picked, counter-screen for HIV-1 Env fusion inhibitor project, dose response (AID 652040).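 Note: potency for signal decrease marking cytotoxic or nonspecific inhibition.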 In kind it is functional, cell-based.
Test [7] addresses Adenosylmethionine-8-amino-7-oxononanoate aminotransferase (Mycobacterium tuberculosis, UniProt P9WQ81). Kind of test: Mycobacterium tuberculosis BioA enzyme inhibitor Measured in Biochemical System Using Plate Reader - 2163-02_Inhibitor_Dose_CherryPick_Activity. The test is classed as functional, Mycobacterium tuberculosis UT205.
Test [8] has as its target T3, Corticotropin-releasing factor receptor 2/Corticotropin-releasing factor-binding protein (Homo sapiens, UniProt P24387+Q13324).
T3 sequence (Q13324 whole entry): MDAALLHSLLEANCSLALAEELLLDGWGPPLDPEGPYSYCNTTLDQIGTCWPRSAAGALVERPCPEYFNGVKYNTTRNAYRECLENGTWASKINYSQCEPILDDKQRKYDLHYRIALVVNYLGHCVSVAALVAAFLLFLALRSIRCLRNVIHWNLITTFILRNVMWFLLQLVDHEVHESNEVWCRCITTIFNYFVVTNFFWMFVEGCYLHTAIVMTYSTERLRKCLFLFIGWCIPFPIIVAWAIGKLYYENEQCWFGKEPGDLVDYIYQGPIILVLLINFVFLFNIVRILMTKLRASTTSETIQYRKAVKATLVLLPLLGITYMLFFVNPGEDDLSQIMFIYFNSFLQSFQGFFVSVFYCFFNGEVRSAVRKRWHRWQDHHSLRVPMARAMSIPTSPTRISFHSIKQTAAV
T3 sequence (P24387 whole entry): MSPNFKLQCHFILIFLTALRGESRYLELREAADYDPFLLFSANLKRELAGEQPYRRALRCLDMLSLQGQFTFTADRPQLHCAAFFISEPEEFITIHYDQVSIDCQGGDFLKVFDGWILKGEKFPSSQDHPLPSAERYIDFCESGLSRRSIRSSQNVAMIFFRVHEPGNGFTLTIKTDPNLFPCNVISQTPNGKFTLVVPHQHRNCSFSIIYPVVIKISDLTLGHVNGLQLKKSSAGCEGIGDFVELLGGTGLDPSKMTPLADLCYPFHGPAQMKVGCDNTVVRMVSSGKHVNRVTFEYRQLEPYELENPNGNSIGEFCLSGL
Kind of test: Dose Response confirmation of uHTS hits for small molecule antagonists of the CRF-binding protein and CRF-R2 receptor complex. The test is classed as functional. The conditions noted are these: read-out: IC50_Mean.

A short description of test [9]: blockers of CRF-binding protein–CRF-R2 complex – cell-based, uHTS hits, 384-well, dose response (AID 651639). The test is classed as functional, Homo sapiens. The conditions noted are these: read-out: IC50_Mean.
Test [10] concerns the target T3, Corticotropin-releasing factor receptor 2/Corticotropin-releasing factor-binding protein. Description: activators of CRF receptor 2 with binding protein – uHTS hits, confirmation (AID 602473). The conditions noted are these: read-out: EC50_Mean. In kind it is functional.
The nature of test [11]: HGIII-sPLA2 enzyme inhibition potency – biochemical, QFRET, IC50, dose response (AID 743457).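 Note: green fluorescence rise as the enzyme cleaves BODIPY PC-A2 in liposomes.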
The nature of a further test: cells. In kind it is functional, cell-based.
Test [12] deals with T4, Nuclear receptor subfamily 0 group B member 1 (Homo sapiens, UniProt P51843).
T4 sequence (P51843 whole entry): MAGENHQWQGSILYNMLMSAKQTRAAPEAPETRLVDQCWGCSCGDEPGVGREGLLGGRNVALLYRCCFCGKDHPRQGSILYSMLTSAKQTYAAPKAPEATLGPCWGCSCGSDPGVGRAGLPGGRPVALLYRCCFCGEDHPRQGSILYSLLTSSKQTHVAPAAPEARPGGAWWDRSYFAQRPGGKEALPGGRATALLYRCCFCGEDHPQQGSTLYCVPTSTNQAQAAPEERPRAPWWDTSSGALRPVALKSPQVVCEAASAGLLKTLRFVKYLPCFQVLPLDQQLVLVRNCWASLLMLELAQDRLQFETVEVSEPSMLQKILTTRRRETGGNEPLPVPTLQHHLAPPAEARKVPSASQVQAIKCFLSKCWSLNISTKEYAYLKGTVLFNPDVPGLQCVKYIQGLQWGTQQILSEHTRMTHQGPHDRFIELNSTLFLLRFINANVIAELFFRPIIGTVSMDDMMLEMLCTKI
The test is classed as functional, cell-based.

A short description of test [13]: OVCAR-3 cell viability loss – plate reader, dry powder samples, PAX8 inhibitor project, dose response (AID 743044). The test is classed as functional, cell-based.
Test [14] is described as follows: mouse fibroblast viability loss – cell-based, cherry-pick samples, set 2, cytotoxicity control for T. cruzi growth inhibitor project, dose response (AID 651817). The test is classed as functional. The note with it: NIH3T3.
The target in another test is Paired box protein Pax-8 (Homo sapiens, UniProt Q06710). Description: PAX8 transcriptional activity inhibition in RMG-I – RMG-I cells, luciferase, cherry-pick, dose response (AID 687027).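 Note: luciferase reporter driven by Pax8 target thyroperoxidase promoter measured by SteadyGlo luminescence.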 In kind it is functional, cell-based.
The nature of test [15]: blockers of HIV-1 ZM109 envelope-driven cell-cell fusion – HeLa effector, CEM target cells, luciferase, cherry-pick, dose response (AID 652058).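 Note: luciferase signal from HIV-1 Env mediated cell-cell fusion of effector and target cells.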 In kind it is functional, cell-based.
Test [16] in a line: IGROV1 cell killing – plate reader, dry powder samples, PAX8 inhibitor project, dose response (AID 743043). The conditions noted are these: IGROV-1. In kind it is functional, cell-based.
Test [17] can be described thus: A2780 cell killing – plate reader, dry powder samples, cytotoxicity control, dose response (AID 743046). The test is classed as functional, cell-based.
The nature of test [18]: OVCAR8 cell viability loss – plate reader, dry powder samples, PAX8 project, dose response (AID 743197). The note with it: OVCAR-8. In kind it is functional, cell-based.
A short description of test [19]: anti-trypanosomal activity in BESM host cells – imaging, CA-I/72 strain, bovine embryo skeletal muscle, dry powder, dose response (AID 651885). The test is classed as functional, cell-based.
Test [20] in a line: T. cruzi growth inhibition in host cells, dose response, cell-based, plate reader, dry powder, set 2 (AID 652275). In kind it is functional.

Each structure is given as a SMILES string. Calls of active or inactive are those of the source.

Sequence of Adenosylmethionine-8-amino-7-oxononanoate aminotransferase (P9WQ81 whole entry): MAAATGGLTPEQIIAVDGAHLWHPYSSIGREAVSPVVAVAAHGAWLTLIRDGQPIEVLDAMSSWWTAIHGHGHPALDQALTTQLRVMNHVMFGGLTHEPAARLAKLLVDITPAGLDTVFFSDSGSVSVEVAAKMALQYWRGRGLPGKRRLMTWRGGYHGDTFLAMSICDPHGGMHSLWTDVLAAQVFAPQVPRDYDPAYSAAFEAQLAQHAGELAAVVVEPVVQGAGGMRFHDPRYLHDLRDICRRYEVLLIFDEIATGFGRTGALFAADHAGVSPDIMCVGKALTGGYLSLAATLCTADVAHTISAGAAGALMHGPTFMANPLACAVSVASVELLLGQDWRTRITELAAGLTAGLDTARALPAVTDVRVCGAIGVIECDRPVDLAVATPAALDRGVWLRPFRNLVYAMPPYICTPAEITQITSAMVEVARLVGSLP
Sequence of Paired box protein Pax-8 (Q06710 whole entry, the tested form may be a part): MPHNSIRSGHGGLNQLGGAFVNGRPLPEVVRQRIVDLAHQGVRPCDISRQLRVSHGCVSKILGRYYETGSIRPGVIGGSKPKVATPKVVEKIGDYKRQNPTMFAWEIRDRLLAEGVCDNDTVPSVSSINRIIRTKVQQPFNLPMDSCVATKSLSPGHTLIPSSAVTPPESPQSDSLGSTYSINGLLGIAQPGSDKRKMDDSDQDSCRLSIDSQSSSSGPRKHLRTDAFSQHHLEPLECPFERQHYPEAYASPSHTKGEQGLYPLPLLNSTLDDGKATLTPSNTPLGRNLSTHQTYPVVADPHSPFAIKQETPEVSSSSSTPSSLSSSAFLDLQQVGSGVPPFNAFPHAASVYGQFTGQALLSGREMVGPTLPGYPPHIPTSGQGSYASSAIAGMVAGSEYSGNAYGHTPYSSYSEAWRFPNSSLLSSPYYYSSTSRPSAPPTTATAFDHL

As for `COc1ccccc1/C=C/C1(C(=O)NC2CCCC2)CC(=O)N1c1ccc(F)cc1` (centres undefined), the AC50 was 6.36 µM (active) in test [1]; 25.2 µM (active) in [2]; 12.7 µM (active) in test [3]; 3.35 µM (active) in test [4]; 3.57 µM (active) in test [5]; 5.48 µM (active) in test [6]. Moreover, the EC50 on Protein RecA was 2.82 µM (active).
Consider `CCCOC(=O)c1cccc(NC(=O)c2cccnc2)c1`, for which, in test [7], the AC50 is 6.09 µM (active).
Take `CC1(C)CC(=O)C(C2C3=C(CC(C)(C)CC3=O)Oc3ccc4ccccc4c32)C(=O)C1` (centres undefined): the IC50 was 14.8 µM (active) in [8] and > 20 µM (inactive) in test [9]. For the same compound, the EC50 in test [10] is 31.8 µM (active).
As for `Cc1ccc(C)c(NC(S)=NNC(=O)c2csc(C)c2C)c1`, the IC50 in test [11] is > 122 µM (inactive).
Regarding `COc1ccc(C(=O)Nc2nnc(SCC(=O)NC3CCCC3)s2)c(OC)c1`, the IC50 in “cells” is > 67.5 µM (inactive); in test [12], > 92.6 nM (active).
`COc1ccc(C(=O)C2CCCN(C(=O)c3ccc(C(C)=O)s3)C2)c(C)c1` (centres undefined): in test [7], the AC50 is 1.7 µM (active).
In the case of `C[C@@H]1CN([C@@H](C)CO)C(=O)Cc2cc(NS(=O)(=O)c3ccc(F)cc3)ccc2O[C@H]1CN(C)Cc1ccc(Cl)c(Cl)c1`, the AC50 is 27.8 µM (active) in test [13]; 7.33 µM (active) in test [14]; 3.12 µM (active) at Paired box protein Pax-8; 1.52 µM (active) in test [2]; 1.33 µM (active) in test [15]; 12.6 µM (active) in [16]. The values for the AC50 in [17], in test [18] and in test [4] were 45.6 µM (active), 49.4 µM (active) and 15.4 µM (active), respectively.
Regarding `CC(C)N1C[C@H](C)[C@@H](CN(C)CC2CCOCC2)Oc2c(NC(=O)c3ccncc3)cccc2C1=O`, the IC50 in [19] is 5.83 µM (inconclusive).
Turning to `CC(C)N1C[C@@H](CN(C)Cc2ccc(Cl)cc2)Oc2c(NC(=O)c3ncn[nH]3)cccc2C1=O`, the AC50 in [20] is 5.99 µM (active).
Take `Cc1cccc(NC(=O)c2cccc([N+](=O)[O-])c2O)c1C`: the IC50 in [8] was 5.93 µM (active); in test [9], > 20 µM (inactive). Moreover, in test [10], the EC50 was > 53 µM (inactive).
